Experimental data: paper PMC2375326, “In vitro evaluation of amino acid prodrugs of novel antitumour 2-(4-amino-3-methylphenyl)benzothiazoles” (British Journal of Cancer, 2002)

How the values were obtained:
SNB-75 = assay: NCI in vitro cytotoxicity assay (SRB), SNB-75; format: cell-based; conditions: Homo sapiens, 48 h exposure, sulforhodamine B assay, mean graph, read-out: Log10 GI50 (SNB-75) (converted)
Procedure: (§1) Cell culture and drug application procedures have been described previously ([Boyd and Paull, 1995]). Briefly, cell lines were inoculated into a series of 96-well microtiter plates, with varied seeding densities depending on growth characteristics of each cell line. Following a 24 h drug free incubation, test agents were added at five 10-fold dilutions with a maximum concentration of 100 μM. Cellular protein levels were determined after 48 h drug exposure by sulphorhodamine B colorimetry.

[1] = tested on: MDA 468 (ER−) human derived breast carcinoma cells; assay: Growth inhibitory assay (MTT), MDA 468; format: cell-based; conditions: Breast carcinoma cell, ER− MDA 468, 3 days (72 h) treatment, n=8, representative mean, ^a = biphasic dose response
Procedure: Prodrugs were prepared as 10 mM top stocks, dissolved in dimethylsulphoxide (DMSO) or sterile ddH2O, and stored at 4°C, protected from light for a maximum period of 4 weeks. MCF-7 (ER+) and MDA 468 (ER−) human derived breast carcinoma cells, cultivated at 37°C in an atmosphere of 5% CO2 in RPMI 1640 medium supplemented with 2 mM L-glutamine and 10% foetal calf serum, were routinely subcultured twice weekly to maintain continuous logarithmic growth. Cells were seeded into 96-well microtiter plates at a density of 5×10^3 per well and allowed 24 h to adhere before drugs were introduced (final concentration 0.1 nM–100 μM, n=8). Serial drug dilutions were prepared in medium immediately prior to each assay. Viable cell masses at the time of drug addition (time-zero), and following 72 h drug exposure were determined by cell-mediated 3-(4,5-dimethylthiazol-2-yl)-2,5-diphenyltetrazolium bromide (MTT) reduction. MTT was added to each well (final concentration 400 μg ml^−1) and plates were incubated at 37°C for 4 h to allow reduction of MTT by viable cell dehydrogenases to an insoluble formazan product. Well supernatants were aspirated and cellular formazan solubilised by addition of DMSO : glycine buffer (pH 10.5) (4 : 1). Cell growth as well as drug activity were determined by measuring absorbance at 550 nm using an Anthos Labtec systems plate reader.

[2] = tested on: NCI in vitro panel of human derived cancer cell lines; assay: NCI in vitro cytotoxicity assay (SRB), whole panel mean graph; format: cell-based; conditions: average GI50 over the panel, 48 h exposure, sulforhodamine B assay, read-out: Log10 GI50 (MG_MID) (converted)
Procedure: as §1

786-0 = assay: NCI in vitro cytotoxicity assay (SRB), 786-0; format: cell-based; conditions: Homo sapiens, 48 h exposure, sulforhodamine B assay, mean graph, read-out: Log10 GI50 (786-0) (converted)
Procedure: as §1

MCF7 = assay: NCI in vitro cytotoxicity assay (SRB), MCF7; format: cell-based; conditions: Homo sapiens, 48 h exposure, sulforhodamine B assay, mean graph, read-out: Log10 GI50 (MCF7) (converted)
Procedure: as §1

HCT-15 = assay: NCI in vitro cytotoxicity assay (SRB), HCT-15; format: cell-based; conditions: Homo sapiens, 48 h exposure, sulforhodamine B assay, mean graph, read-out: Log10 GI50 (HCT-15) (converted)
Procedure: as §1

SK-MEL-28 = assay: NCI in vitro cytotoxicity assay (SRB), SK-MEL-28; format: cell-based; conditions: Homo sapiens, 48 h exposure, sulforhodamine B assay, mean graph, read-out: Log10 GI50 (SK-MEL-28) (converted)
Procedure: as §1

SK-OV-3 = assay: NCI in vitro cytotoxicity assay (SRB), SK-OV-3; format: cell-based; conditions: Homo sapiens, 48 h exposure, sulforhodamine B assay, mean graph, read-out: Log10 GI50 (SK-OV-3) (converted)
Procedure: as §1

ACHN = assay: NCI in vitro cytotoxicity assay (SRB), ACHN; format: cell-based; conditions: Homo sapiens, 48 h exposure, sulforhodamine B assay, mean graph, read-out: Log10 GI50 (ACHN) (converted)
Procedure: as §1

SR = assay: NCI in vitro cytotoxicity assay (SRB), SR; format: cell-based; conditions: Homo sapiens, 48 h exposure, sulforhodamine B assay, mean graph, read-out: Log10 GI50 (SR) (converted)
Procedure: as §1

NCIH23 = assay: NCI in vitro cytotoxicity assay (SRB), NCIH23; format: cell-based; conditions: Homo sapiens, NCI-H23; 48 h exposure, sulforhodamine B assay, mean graph; read-out: Log10 GI50 (NCIH23) (converted)
Procedure: as §1

SF-268 = assay: NCI in vitro cytotoxicity assay (SRB), SF-268; format: cell-based; conditions: Homo sapiens, 48 h exposure, sulforhodamine B assay, mean graph, read-out: Log10 GI50 (SF-268) (converted)
Procedure: as §1

NCI/ADR-RES = assay: NCI in vitro cytotoxicity assay (SRB), NCI/ADR-RES; format: cell-based; conditions: Homo sapiens, 48 h exposure, sulforhodamine B assay, mean graph, read-out: Log10 GI50 (NCI/ADR-RES) (converted)
Procedure: as §1

U251 = assay: NCI in vitro cytotoxicity assay (SRB), U251; format: cell-based; conditions: Homo sapiens, U-251; 48 h exposure, sulforhodamine B assay, mean graph; read-out: Log10 GI50 (U251) (converted)
Procedure: as §1

HOP-62 = assay: NCI in vitro cytotoxicity assay (SRB), HOP-62; format: cell-based; conditions: Homo sapiens, 48 h exposure, sulforhodamine B assay, mean graph, read-out: Log10 GI50 (HOP-62) (converted)
Procedure: as §1

[3] = tested on: CYP1A1 activity (EROD) in MCF-7 cells; assay: Induction of EROD activity in lysates of treated MCF-7 cells; format: cell-based, human; conditions: lysates of MCF-7 cells treated with 1 μM, 24 h; negligible activity in untreated lysates; mean of three, s.d. <10%
Procedure: A sensitive and rapid fluorometric assay was used to measure EROD activity ([Burke et al, 1994]). Incubation mixtures (total 1 ml) consisted of 100 mM Tris-HCl (pH 7.4), 50 μM MgCl2, 100 μM 7-ethoxyresorufin and 100 μl cell homogenate. Homogenates were prepared following treatment of cells for 24 h with compounds 1, 2, 2a, 2b, 3, 3a, 3b, 4, 4a and 4b or vehicle alone and protein content determined (n=3). Thus induction of ethoxyresorufin O-deethylation by agents under study, catalysed by CYP1A1 activity, could be determined. Alternatively, microsomes expressing recombinant CYP1A1 (0.1 mg ml^−1) provided the enzyme source for EROD catalysis, in the presence or absence of drug, in order to determine inhibition of CYP1A1 activity by compounds 1, 2, 2a, 2b, 3, 3a, 3b, 4, 4a and 4b. Incubation mixtures were pre-incubated for 5 min at 37°C before initiation of reaction by addition of NADPH (500 μM). Following further incubations at 37°C (30 min for cell homogenates, 15 min for CYP1A1 microsomes), reactions were terminated by addition of 3 ml ice-cold acetonitrile. Reaction mixtures were centrifuged (1400 r.p.m., 10 min) before analyses of supernatants. Fluorescence was read on a Perkin-Elmer LS-5 luminescence spectrometer (excitation, 530 nm; emission 585 nm). Estimation of resorufin reaction product (pmoles mg^−1 protein, pmoles 100 μg^−1 microsomes), as a measure of CYP1A1 activity, was determined following performance of a resorufin standard curve.

Question: How did the GI50 (SNB-75) turn out when Cc1cc(-c2nc3cc(F)ccc3s2)ccc1N [Compound 2, 2-(4-Amino-3-methylphenyl)-5-fluorobenzothiazole] was run?
Answer: 17 µM

Question: And the GI50 [1]?
Answer: < 0.1 nM

Question: And the GI50 [2]?
Answer: 11 µM

Question: What about the GI50 (786-0) of the same compound?
Answer: 24 µM

Question: What about the GI50 (MCF7) of the same compound?
Answer: < 10 nM

Question: And the GI50 (HCT-15)?
Answer: 7.94 µM

Question: What about the GI50 (SK-MEL-28) of the same compound?
Answer: > 100 µM

Question: And the GI50 (SK-OV-3)?
Answer: 83.2 µM

Question: What about the GI50 (ACHN) of the same compound?
Answer: 30.2 µM

Question: And the GI50 (SR)?
Answer: < 10 nM

Question: What about the GI50 (NCIH23) of the same compound?
Answer: 51.3 µM

Question: What about the GI50 (SF-268) of the same compound?
Answer: 58.9 µM

Question: And the GI50 (NCI/ADR-RES)?
Answer: 66.1 µM

Question: And the GI50 (U251)?
Answer: 41.7 µM

Question: And the GI50 (HOP-62)?
Answer: 18.6 µM

Question: What about the “Induction EROD activity” value [3] of the same compound?
Answer: 36.64 nM resorufin mg^-1 protein

Question: Which GI50 (SNB-75) does the source give for Cc1cc(-c2nc3cc(F)ccc3s2)ccc1NC(=O)[C@@H](N)CCCCN [Compound 2b] here?
Answer: 1.62 µM

Question: What about the GI50 [1] of the same compound?
Answer: 57.7 nM

Question: What about the GI50 [2] of the same compound?
Answer: 2.51 µM

Question: What about the GI50 (786-0) of the same compound?
Answer: 4.07 µM

Question: What about the GI50 (MCF7) of the same compound?
Answer: < 10 nM

Question: And the GI50 (HCT-15)?
Answer: 5.25 µM

Question: What about the GI50 (SK-MEL-28) of the same compound?
Answer: 22.4 µM

Question: And the GI50 (SK-OV-3)?
Answer: 16.2 µM

Question: And the GI50 (ACHN)?
Answer: 6.03 µM

Question: What about the GI50 (SR) of the same compound?
Answer: 562 nM

Question: What about the GI50 (NCIH23) of the same compound?
Answer: 6.17 µM

Question: What about the GI50 (SF-268) of the same compound?
Answer: 6.76 µM

Question: What about the GI50 (NCI/ADR-RES) of the same compound?
Answer: 15.1 µM

Question: And the GI50 (U251)?
Answer: 2.14 µM

Question: And the GI50 (HOP-62)?
Answer: 6.31 µM

Question: What about the “Induction EROD activity” value [3] of the same compound?
Answer: 35.56 nM resorufin mg^-1 protein
